Key:
rat brain cortex slices = assay: Radiolabeled serotonin release from isolated, superfused rat brain cortex slices in vitro; assay type: cell-based
Protocol: Methods previously known for studies of radiolabeled serotonin release were employed. Isolated rat brain cortex slices were incubated in oxygenated Krebs buffer solution containing 800 nM radiolabeled serotonin, the monoamine oxidase inhibitor pargyline (10 μM), and the cyclooxygenase inhibitor flurbiprofen (3 μM) at 37° C. […] Radiolabeled serotonin was purchased from NEN Life Sciences, Boston, Mass. The Krebs solution used had the following composition (millimolar): potassium chloride, 4.8; sodium chloride 118; calcium chloride, 1.3; potassium dihydrogen phosphate, 1.2; sodium bicarbonate, 25; magnesium sulfate, 2.0; and dextrose, 10 (pH 7.4).
After incubation, tissues were rinsed, mounted between nylon mesh-cloth and placed in thermostatically-controlled superfusion chambers. Tissues were superfused at a rate of 0.5 ml/min with oxygenated Krebs solution containing clomipramine (10 μM), a serotonin reuptake inhibitor. Fractions of the superfusate were collected at 6-minute intervals, and 3-ml aliquots of each fraction was combined with 12 ml of aqueous scintillation cocktail marketed under the name Ecolume, by ICN Radiochemicals of California) and analyzed for radioactivity by liquid scintillation spectrometry.
After an initial 2 hours of superfusion to establish a stable baseline of spontaneous tritium efflux, release of radiolabeled serotonin was elicited by consecutive potassium-depolarizing (K+, 50 mM) stimuli applied at 144 minutes (S1) and at 198 minutes (S2) after the onset of superfusion. In some experiments, tissues were exposed to different concentrations of HCA for 12 minutes before the second K+ stimuli at S2. When HCA was tested on its own, the K+ (50 mM; S1) peak was used as the standard (or control) response. In this case, effects induced by HCA on radiolabeled serotonin release were then compared with the standard K+ response. Both K+ and HCA-induced radiolabeled serotonin release were estimated by subtraction of the extrapolated basal tritium efflux from total tritium release in the 20-minute period after the onset of stimulation. Basal (unstimulated) tritium efflux was assumed to decline linearly between pre-stimulation and post-stimulation fractions. Stimulation-evoked radiolabeled serotonin release during S1 and S2 was determined graphically, and the ratio of the two peaks (S1/S2) was calculated and compared with untreated control preparations.
Results obtained were expressed as absolute S1/S2 ratios. Data from different experiments (control and test) were pooled and then subjected to statistical analysis. Except where indicated otherwise, values given are arithmetic means ±SEM. Significance of difference between control and test values was evaluated using analysis of variance (ANOVA) followed by Dunnett's test. […]

[1] = system: moderately obese human subjects; assay: Double-blind, placebo-controlled human clinical trial (serum serotonin, body weight, food intake); assay type: in vivo
Protocol: The effects of administering compositions within the scope of the present invention were tested. A double-blind, placebo-controlled human clinical trial was conducted using a composition incorporating: the HCA extract described above, or the HCA extract in combination with an oxygen-coordinated niacin-bound chromium (ChromeMate®, supplied by InterHealth), and a standardized Gymnema sylvestre extract (also supplied by InterHealth). Approximately 80 moderately obese human subjects were enrolled in the study. All subjects were placed on a daily diet of 2,000 kcal, weighing 2,250 grams. All food was prepared and delivered to the subjects, and all food intake was strictly supervised by trained dieticians. All subjects also underwent a 30 minute walking exercise program, five times a week, which was supervised by a trained exercise specialist. The subjects were randomly divided into three groups. The first group was given a placebo. The second group was given a daily dose of 4,667 mg of garcinia cambogia extract (providing 2,800 mg HCA per day). The third group was given a daily dose of 4,667 mg of a combination of garcinia cambogia (2,800 mg HCA), 4 mg of niacin-bound chromium (providing 400 mcg of elemental chromium), and 400 mg of Gymnema sylvestre extract (providing 100 mg […]). The subjects received their respective compositions in three equally-divided doses 30 to 60 minutes before breakfast, lunch and dinner for eight weeks. These dosage levels of HCA were determined by extrapolation of successful earlier animal trials, as well as review of optimal micromolar concentrations of HCA in ex vivo brain tissue resulting in maximum serotonin release. The persons were assessed for changes in serum serotonin levels, body weight, and food intake. As discussed above, increases in serum serotonin levels relate to reduced appetite. Food intake was measured by monitoring the amount of food left unconsumed after each meal by the subjects. The amount of food left unconsumed while taking either the placebo or either of the HCA compositions was compared to the amount of food left unconsumed before the subjects began taking the compositions (i.e., the baseline). Changes in each of these factors were measured in the persons and averaged to produce the figures in Table 1.

[2] = eight weeks, 2,800 mg HCA per day orally in three doses

O=C(O)CC(O)(C(=O)O)C(O)C(=O)O (single isomer, unassigned; (-)) [HCA, (−)-hydroxycitric acid]
Effect on second K+ response (K+-depolarization evoked radiolabeled serotonin release, S2) (rat brain cortex slices; HCA 10 μM-1 mM applied 12 minutes before second K+ (50 mM) stimulus): no significant effect | Effect on basal efflux of radiolabeled serotonin (rat brain cortex slices; HCA 10 μM-1 mM, rat brain cortex slices): concentration-related increase | Overflow of radiolabeled serotonin compared with standard K+ (50 mM) response (rat brain cortex slices; HCA 300 μM (maximal concentration)): equivalent to the release induced by the standard concentration of K+ (50 mM) | Concentration giving maximum basal efflux of radiolabeled serotonin (rat brain cortex slices; tested range 10 μM-1 mM): 300 µM | Body weight, % decrease [1, 2]: 5.0% | Serum serotonin level, % increase [1, 2]: 48.5% | Serum serotonin level, mg/dl increase [1, 2]: 119.1 mg/dL | Body weight, pounds lost ([1]; eight weeks, 2,800 mg HCA per day orally in three doses, 2,000 kcal diet and exercise): 10.0 pounds | Food left unconsumed, % increase from baseline ([1]; eight weeks, compared with before taking the compositions): 206% | Food left unconsumed, grams ([1]; eight weeks, daily diet weighing 2,250 grams): 249 grams

Reference: US20030119913A1, “Method for increasing serotonin levels in a person by administration of a composition incorporating (-)-hydroxycitric acid, and related compositions thereof” (priority 2001, published 2003)
